In assay [1] the test system is CatG4-ext (DNA, G4) ACATAGCTGACTGGCTTGATTTTGGGTAGGGCGGGTTGGGAAATATCGAATTCTCAGCCTACACTGCAGTACTAGTACATATCA
Kind of assay: competition with hemin: StAv gel shift of self-biotinylation. Conditions: 20 mM KCl, 40 mM HEPES pH 8.0, 22°C, 5 uM hemin. A general note: Mobility shift assays separate free from complexed probe on a gel.

For assay [2], the system named is CatG4-T7 / ssDNA duplex-GQ chimera (DNA, G4) TGGGTAGGGCGGGTTGGGAAATATCCTATAGTGAGTCGTATTAAAG/CTTTAATACGACTCACTATAGG
Kind of assay: hemin-dependent self-biotinylation, StAv gel shift (indirect). Conditions: 20 mM KCl, 26 mM MgCl2, 2.5 mM spermidine; QD buffer pH 8.0; 1 uM DNA, 5 uM hemin; CatG4-T7 strand 52%, ssDNA strand 3% biotinylated.

In assay [3] the test system is rBCL2 (RNA, G4) AGGGGGCCGUGGGGUGGGAGCUGGGG
The description is as above. The settings on record: 20 mM KCl; 40 mM HEPES pH 8.0, 22°C; 5 uM hemin.

Assay [4] deals with CatG4-ext (DNA, G4) ACATAGCTGACTGGCTTGATTTTGGGTAGGGCGGGTTGGGAAATATCGAATTCTCAGCCTACACTGCAGTACTAGTACATATCA
Described as above. Conditions: 20 mM KCl, 26 mM MgCl2, 2.5 mM spermidine; QD buffer pH 8.0, 22°C; 10 nM DNA, 5 uM hemin, 100 uM ssDNA or dsDNA competitor.

The subject of assay [5] is TBA (DNA, G4) GGTTGGTGTGGTTGG
Described as above. Conditions: 20 mM KCl; 40 mM HEPES pH 8.0, 22°C; 5 uM hemin.

Assay [6] has as its system CatG4-ext2 / Comp-1 / ssDNA / Comp-3 GQ-duplex chimera (DNA, G4) TGGGTAGGGCGGGTTGGGAAATATTTTAGCTCACGAGACGCTCCCATAGTGACCTATAGTGAGTCGTATTAAAGTCCGGAGGACTGTCCTCCGGC/TCACTATGGGAGCGTCTCGTGAGCTAAA/CTTTAATACGACTCACTATAGG/GCCGGAGGACAGTCCTCCGGA
The description is as above. Conditions: 20 mM KCl, 26 mM MgCl2, 2.5 mM spermidine; QD buffer pH 8.0; 1 uM DNA, 5 uM hemin; ssDNA strand not biotinylated.

Assay [7] deals with rNRAS (RNA, G4) AGGGAGGGGCGGGUCUGGG
The assay is described as above. The settings on record: 20 mM KCl; 40 mM HEPES pH 8.0, 22°C; 5 uM hemin.

Assay [8] deals with MYC (DNA, G4) TGAGGGTGGGTAGGGTGGGTAA
The description is as above. Conditions: 20 mM KCl; 40 mM HEPES pH 8.0, 22°C; 5 uM hemin.

The subject of assay [9] is SPB1 (DNA, G4) GGCGAGGAGGGGCGTGGCCGGC
The description is as above. Conditions: 20 mM KCl; 40 mM HEPES pH 8.0, 22°C; 5 uM hemin.

Assay [10] relates to hTELO (DNA, G4) GGTTAGGGTTAGGGTTAGGGTTAGGGTTAG
The description is as above. The settings on record: 20 mM KCl; 40 mM HEPES pH 8.0, 22°C; 5 uM hemin.

The subject of assay [11] is KIT1 (DNA, G4) AGGGAGGGCGCTGGGAGGAGGG
Described as above. The settings on record: 20 mM KCl; 40 mM HEPES pH 8.0, 22°C; 5 uM hemin.

Assay [12] concerns CatG4 (DNA, G4) TGGGTAGGGCGGGTTGGGAAA
The description is as above. The settings on record: 20 mM KCl; 40 mM HEPES pH 8.0, 22°C; 5 uM hemin.

The subject of assay [13] is KIT2 (DNA, G4) CGGGCGGGCGCGAGGGAGGGG
Described as above. Conditions: 20 mM KCl; 40 mM HEPES pH 8.0, 22°C; 5 uM hemin.

[14] abbreviates: 20 uM ligand lowers biotinylation 67% to 22-23%.

For `NCCOc1cc(C(=O)Nc2cc(OCCN)c3ccccc3n2)nc(C(=O)Nc2cc(OCCN)c3ccccc3n2)c1`, the binding result in assay [1] (20 uM ligand lowers biotinylation 67% to 1%) is given as “yes”.
Take `CCc1c(C)c2cc3nc(cc4nc(cc5c(CC)c(C)c(cc1[nH]2)n5C)C(C)=C4CCC(=O)O)C(CCC(=O)O)=C3C`: the binding entry in [1] (setting [14]) was “yes”.
Regarding `C=CC1=C(C)C2=Cc3c(C=C)c(C)c4[n]3[Fe]([Cl])[n]3c(c(C)c(CCC(=O)O)c3=CC3=NC(=C4)C(C)=C3CCC(=O)O)=CC1=N2`, the binding result in assay [2] is recorded as “yes”; in assay [3], “yes”; in assay [4] it was “yes”; in assay [5], “weak”; in assay [6], “yes”; in [7], “yes”. Moreover, the binding entry in [8] is “yes”; in assay [9], “weak”; in assay [10] it was “yes”; in [11], “yes”; in assay [12] it was “yes”; in assay [13], “yes”.
For the compound `CN(C)c1ccc(Nc2c3ccc(NC(=O)CCN4CCCC4)cc3nc3cc(NC(=O)CCN4CCCC4)ccc23)cc1`, the binding entry in [1] (setting [14]) is recorded as “yes”.
